Like-named read-outs stand apart in the source and are kept apart here.
Columns and labels:
[1] = biological target: T1, hKv1.5 channel (Homo sapiens, UniProt P22460); experiment: Block of hKv1.5 channel currents expressed in Ltk-cells (whole cell patch clamp); assay type: cell-based; conditions: for Hill value: from concentration-response curves using the Hill equation; for type of hKv1.5 block / effect on the hKv1.5 channel currents / IC50: hKv1.5 expressed in Ltk-cells; for type of hKv1.5 block: FIGS. 1a to 1e; for effect on the hKv1.5 channel currents: FIGS. 1a to 1d; for IC50: steady-state current at end of +50 mV depolarizing pulse, holding -80 mV
T1 construct: expressed in transfected cells; host or cells: mouse Ltk- cells (pMSVneo vector, G418 selection)
T1 sequence (P22460 whole entry): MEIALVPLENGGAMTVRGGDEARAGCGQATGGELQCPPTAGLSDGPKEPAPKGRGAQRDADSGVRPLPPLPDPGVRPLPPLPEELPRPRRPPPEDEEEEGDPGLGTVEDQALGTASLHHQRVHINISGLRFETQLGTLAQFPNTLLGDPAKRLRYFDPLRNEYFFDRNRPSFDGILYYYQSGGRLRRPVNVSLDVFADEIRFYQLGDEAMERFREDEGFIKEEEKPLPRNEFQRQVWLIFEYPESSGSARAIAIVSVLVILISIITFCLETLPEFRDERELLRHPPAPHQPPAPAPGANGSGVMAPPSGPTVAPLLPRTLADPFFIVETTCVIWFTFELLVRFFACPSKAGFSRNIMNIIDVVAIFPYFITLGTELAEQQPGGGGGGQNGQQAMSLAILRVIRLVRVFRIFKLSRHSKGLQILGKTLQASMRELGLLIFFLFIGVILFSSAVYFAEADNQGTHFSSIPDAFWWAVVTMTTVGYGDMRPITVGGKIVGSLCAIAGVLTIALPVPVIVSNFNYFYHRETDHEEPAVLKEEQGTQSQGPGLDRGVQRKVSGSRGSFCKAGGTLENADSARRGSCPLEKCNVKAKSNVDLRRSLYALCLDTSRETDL
Method: Cell line selectively expressing a specific cardiac K^+ channel gene was prepared according to the method described in the thesis (Yang, et al., Inhibition of cardiac potassium currents by the vesnarinone analog OPC-18790: comparison with quinidine and dofetilide. J Pharmacol Exp Ther. 1997, 280: 1170-1175; Kwak, et al., Phosphorylation is required for alteration of Kv1.5 K^+ channel function by the Kvbeta 1.3 subunit. J Biol Chem 1999, 274: 25355-25361).
First, cDNAs for human cardiac K^+ channel genes such as hKv 1.5 and HERG were subcloned into pMSVneo which contain dexamethasone-inducible murine mammary tumor virus promoter controlling transcription of the inserted cDNA and a gene conferring neomycin resistance driven by the SV40 early promotor. The cDNA-containing expression vector was transfected into mouse Ltk-cells with lipofectamine. After 24 hours, the cells selection with […] of G418 was performed for 2 weeks or until discrete foci formed. Individual foci were isolated, maintained in 0.25 μg/ml of G418, and screened by Norhtern analysis and electrophysiological analysis. Transfected cells were cultured in Dulbeco's modified Eagle medium (DMEM) supplemented with 10% horse serum and 0.25 μg/ml of G418, under 5% CO2. Transiently transfected cells were cultured in DMEM media supplemented with only 10% horse serum, differently from stable cell lines.
Currents in human atrial myocytes and cell lines were recorded by using the whole cell configuration of the gigaohm-seal patch clamp techniques (Kwak, et al., Phosphorylation is required for alteration of Kv1.5 K^+ channel function by the Kvbeta 1.3 subunit. J Biol Chem 1999, 274: 25355-25361). First, electrical signals were amplified with a patch clamp amplifier (Axon Instruments, Axopatch-1D, Foster, USA). Currents were digitized by a signal converter (Digidata 1200, Axon Instruments) and stored on the hard disk of a computer. The micropipette with a resistance of 1˜2MΩ (Kimax-51, 1.5=14 1.8×10 mm) for current recording, was pulled out by a 2-stage pipette puller (Narishige, PP-83). The intracellular pipette-filling solution for whole cell mode contained 100 mM KCl, 10 mM HEPES, 5 mM K4BAPTA, 5 mM K2ATP and 1 mM MgCl2 (pH 7.2). The extracellular solution contained 130 mM NaCl, 4 mM KCl, 1.8 mM CaCl2, 1 mM MgCl2, 10 mM HEPES and 10 mM glucose (pH 7.35).
The current traces were recorded with a depolarizing pulse of +50 mV from a holding potential of −80 mV, followed by a repolarizing pulse of −50 mV in the Ltk-cells. To observe the concentration-dependent block of hKv1.5 channel currents by each compound, steady-state currents taken at the end of the depolarizing pulse of +50 mV were normalized to the control obtained in the absence of each compound
FIG. 1e is concentration-response curves showing the relative steady-state currents obtained at the end of the depolarizing pulse against the concentration of each compound. Data were fitted with a Hill equation.
IC50 values (50% inhibitory concentration, μM) of compounds 1˜14 on the hKv1.5 channel currents were determined, and Hill values were calculated from the concentration-response curves of the respective compounds using the Hill equation.

[2] = system: rabbit atrial tissue; experiment: Frequency-dependent effects on action potentials of rabbit atrial tissue (APD90); assay type: cell-based; conditions: varied stimulus frequencies, FIG. 5c; compared to chelidonine
Method: Action potentials in rabbit atrial tissue were recorded according to the method described in thesis by Kwak, et al. (A newly synthesized benzopyran derivatives, activates the cardiac ATP-sensitive K^+ channel. J Pharmacol Exp Ther 1995, 275: 807-812).
Male New Zealand white rabbits weighing about 2 kg were stunned with a blow on the head and hearts were rapidly excised and transferred to a dissection bath filled with Tyrode's solution saturated with 97% O2 and 3% CO2 gas mixture and each dissected tissue was mounted horizontally in a narrow channel of a tissue chamber and continuously superfused with the Tyrode's solution at 37° C. The action potentials were elicited by stimulating the cardiac cells with square pulses (1˜5 Hz, 1-ms duration, 20-30% above threshold voltage) by a stimulator. […] Tracings on the oscilloscope screen were photographed on a 35-mm film and also recorded on a physiograph (RS 3400, Gould, Cleveland, Ohio). APD90 was used for the comparison of action potential durations. APD90 represents the action potential duration at 90% repolarization, relative to the action potential duration at maximum 100% depolarization. Images on the oscilloscope screen were captured on Polaroid camera.
We tested whether the effect of chelidonine on action potentials of rabbit atrial myocytes are frequency-dependent or not.
The relative action potential durations were normalized to the APD90 value in the absence of chelidonine at each frequency. At the stimulus frequency of 1, 2, 3, 4 and 5 Hz, 1 μM chelidonine increased APD90 by 13.0±8.1% (n=5), 14.5±7.9% (n=5), 16.5±2.2% (n=5) 28.2±0.4% (n=5) or 33.0±0.3 1% (n=5) of the control APD90 in the absence of chelidonine at each frequency, respectively.

[3] = system: mouse; conditions: in vivo, cited from earlier work

SMILES | Hill value [1] | type of hKv1.5 block [1] | effect on the hKv1.5 channel currents [1] | IC50 [1] | action potential duration prolongation [2] | toxicity ([3]; iv) | toxicity ([3]; sc)
CC(=O)O[C@H]1Cc2cc3c(cc2[C@@H]2[C@H]1c1ccc4c(c1CN2C)OCO4)OCO3 [Compound 4, {[5bR-(5bα,6β,12bα)]-5b,6,7,12b,13, 14-hexahydro-13-methyl[1,3]benzodioxolo[5,6c]-1,3-dioxolo[4,5-i]phenanthridin-6-yl}-acetate] | 1.34 | predominantly blocked the open ion channels | concentration-dependent inhibitory effects | 11.3 ± 3.3 µM | increased the action potential durations in the similar manner as chelidonine, but to a lesser extent | – | –
Cc1ccc(S(=O)(=O)O[C@H]2Cc3cc4c(cc3[C@@H]3[C@H]2c2ccc5c(c2CN3C)OCO5)OCO4)cc1 [Compound 11, {[5bR-(5bα,6β,12bα)]-5b,6,7,12b,13, 14-hexahydro-13-methyl[1,3]benzodioxolo[5,6c]-1,3-dioxolo[4,5-i]phenanthridin-6-yl}-4-methylbenzenesulfonate] | 1.19 | – | – | 29.6 ± 3.7 µM | – | – | –
C[n+]1cc2c3c(ccc2c2ccc4cc5c(cc4c21)OCO5)OCO3 [Compound 14, 13-methyl[1,3]benzodioxolo[5,6c]-1,3-dioxolo[4,5-i]phenanthridinium] | 1.39 | slowed the channel activation | concentration-dependent inhibitory effects | 13 ± 3.8 µM | increased the action potential durations in the similar manner as chelidonine, but to a lesser extent | 15.9 mg/kg | 102.0 mg/kg
CN1Cc2c(ccc3c2OCO3)[C@H]2[C@@H](OP(=O)(Oc3ccccc3)Oc3ccccc3)Cc3cc4c(cc3[C@H]21)OCO4 [Compound 9, {[5bR-(5bα,6β,12bα)]-5b,6,7,12b,13, 14-hexahydro-13-methyl[1,3]benzodioxolo[5,6c]-1,3-dioxolo[4,5-i]phenanthridin-6-yl}-diphenylphosphate] | 1.26 | – | – | – | – | – | –
CN1Cc2c(ccc3c2OCO3)C2=CCc3cc4c(cc3[C@H]21)OCO4 [Compound 7, (12bR)-7,12b,13,14-tetrahydro-13-methyl[1,3]-benzodioxolo[5,6c]-1,3-dioxolo[4,5-i]phenanthridine] | 0.98 | – | – | 19.9 ± 3.5 µM | – | – | –
CO[C@H]1Cc2cc3c(cc2[C@@H]2[C@H]1c1ccc4c(c1CN2C)OCO4)OCO3 [Compound 2, [5bR-(5bα,6β,12bα)]-5b,6,7,12b,13, 14-hexahydro-6-methoxy-13-methyl[1,3]-benzodioxolo[5,6c]-1,3-dioxolo[4,5-i]phenanthridine] | 1.29 | – | – | 45.2 ± 4.1 µM | – | – | –
CN1Cc2c(ccc3c2OCO3)[C@H]2[C@@H](OCc3ccccc3)Cc3cc4c(cc3[C@H]21)OCO4 [Compound 3, [5bR-(5bα,6β,12bα)]-5b,6,7,12b,13, 14-hexahydro-6-benzyloxy-13-methyl[1,3]benzodioxolo[5,6c]-1,3-dioxolo[4,5-i]phenanthridine] | 1.37 | – | – | 59.3 ± 3 µM | – | – | –
CN1Cc2c(ccc3c2OCO3)[C@H]2[C@@H](OC(N)=O)Cc3cc4c(cc3[C@H]21)OCO4 [Compound 12, {[5bR-(5bα,6β,12bα)]-5b,6,7,12b,13, 14-hexahydro-13-methyl[1,3]benzodioxolo[5,6c]-1,3-dioxolo[4,5-i]phenanthridin-6-yl}-carbamate] | 1.12 | – | – | 1.9 ± 1 µM | – | – | –
CN1Cc2c(ccc3c2OCO3)-c2ccc3cc4c(cc3c21)OCO4 [Compound 6, (12bR)-13,14-dihydro-13-methyl [1,3]benzodioxolo[5,6c]-1,3-dioxolo[4,5-i]phenanthridine] | 1.09 | – | – | 26.4 ± 3.9 µM | – | – | –
CN1Cc2c(ccc3c2OCO3)[C@H]2[C@@H](OS(C)(=O)=O)Cc3cc4c(cc3[C@H]21)OCO4 [Compound 10, {[5bR-(5bα,6β,12bα)]-5b,6,7,12b,13, 14-hexahydro-13-methyl[1,3]benzodioxolo[5,6c]-1,3-dioxolo[4,5-i]phenanthridin-6-yl}-methanesulfonate] | 1.20 | – | – | 31.3 ± 3.5 µM | – | – | –
CN1Cc2c(ccc3c2OCO3)[C@H]2[C@@H](OC(=O)c3ccccc3)Cc3cc4c(cc3[C@H]21)OCO4 [Compound 5, {[5bR-(5bα,6β,12bα)]-5b,6,7,12b,13, 14-hexahydro-13-methyl[1,3]benzodioxolo[5,6c]-1,3-dioxolo[4,5-i]phenanthridin-6-yl}-benzoate] | 1.18 | showed the tonic blocking effects | concentration-dependent inhibitory effects | 29.3 ± 4.2 µM | increased the action potential durations in the similar manner as chelidonine, but to a lesser extent | – | –
CN1Cc2c(ccc3c2OCO3)[C@@]2(C)[C@@H](O)Cc3cc4c(cc3[C@@H]12)OCO4 [Compound 13, [5bR-(5bα,6β,12bα)]-5b,6,7,12b,13, 14-hexahydro-5b,13-dimethyl[1,3]-benzodioxolo[5,6c]-1,3-dioxolo[4,5-i] phenanthridin-6-ol] | 1.34 | – | – | – | – | – | –
CN1Cc2c(ccc3c2OCO3)[C@H]2CCc3cc4c(cc3[C@H]21)OCO4 [Compound 8, [5bR-(5bα,6β,12bα)]-5b,6,7,12b,13, 14-hexahydro-13-methyl[1,3] benzodioxolo[5,6c]-1,3-dioxolo[4,5-i]phenanthridine] | 1.38 | – | – | 65.6 ± 4.2 µM | – | – | –

— patent publication US6887882B2, “Pharmaceutical compositions comprising chelidonine or derivatives thereof” (priority 2002, dated 2005)
